Measurements from PubChem BioAssay AID2060883 (Molecular Pharmacology Branch, DTP, NCI, 2025).
pIC50: −log10 of the molar value. Each block holds one compound with its values, some of them ahead of it.

Tested on: 843782-103-R-J1-PDC complex spheroid viability
Experiment: Anticancer human tumor 843782-103-R-J1-PDC patient-derived lung adenocarcinoma cell line growth inhibition [RAS]
Conditions: for pIC50: curve of first compound; for viability, T/C: stronger effect = lower value
How it was run: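 Agents were tested in combination matrices in half-log decrements from a top concentration at or near clinical Cmax (10 microM if undetermined). Targets were multi-cell spheroids of tumour lines plus HUVEC and MSC stromal cells.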

[1] = second compound 0.000949 µM, first compound 0.0316 µM
[2] = second compound 0.000949 µM, first compound 0.1 µM
[3] = second compound 0.000949 µM, first compound 0.316 µM
[4] = second compound 0.000949 µM, first compound 1 µM
[5] = second compound 0.000949 µM, first compound 3.16 µM
[6] = second compound 0.000949 µM, first compound 10 µM
[7] = second compound 0.003 µM, first compound 0.0316 µM
[8] = second compound 0.003 µM, first compound 0.1 µM
[9] = second compound 0.003 µM, first compound 0.316 µM
[10] = second compound 0.003 µM, first compound 1 µM
[11] = second compound 0.003 µM, first compound 3.16 µM
[12] = second compound 0.003 µM, first compound 10 µM
[13] = second compound 0.00949 µM, first compound 0.0316 µM
[14] = second compound 0.00949 µM, first compound 0.1 µM
[15] = second compound 0.00949 µM, first compound 0.316 µM
[16] = second compound 0.00949 µM, first compound 1 µM
[17] = second compound 0.00949 µM, first compound 3.16 µM
[18] = second compound 0.00949 µM, first compound 10 µM
[19] = second compound 0.03 µM, first compound 0.0316 µM
[20] = second compound 0.03 µM, first compound 0.1 µM
[21] = second compound 0.03 µM, first compound 0.316 µM
[22] = second compound 0.03 µM, first compound 1 µM
[23] = second compound 0.03 µM, first compound 3.16 µM
[24] = second compound 0.03 µM, first compound 10 µM
[25] = second compound 0.0949 µM, first compound 0.0316 µM
[26] = second compound 0.0949 µM, first compound 0.1 µM
[27] = second compound 0.0949 µM, first compound 0.316 µM
[28] = second compound 0.0949 µM, first compound 1 µM
[29] = second compound 0.0949 µM, first compound 3.16 µM
[30] = second compound 0.0949 µM, first compound 10 µM
[31] = second compound 0.3 µM, first compound 0.0316 µM
[32] = second compound 0.3 µM, first compound 0.1 µM
[33] = second compound 0.3 µM, first compound 0.316 µM
[34] = second compound 0.3 µM, first compound 1 µM
[35] = second compound 0.3 µM, first compound 3.16 µM
[36] = second compound 0.3 µM, first compound 10 µM
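Also: viability read after seven days of compound exposure.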

pIC50 (second compound 0.000949 µM): 7.23 | pIC50 (second compound 0.003 µM): 7.11 | pIC50 (second compound 0.00949 µM): 7.14 | pIC50 (second compound 0.03 µM): 7.20 | pIC50 (second compound 0.0949 µM): 7.13 | pIC50 (second compound 0.3 µM): 7.23
SMILES: CC1(O)CCCC1n1c(=O)c(C(F)F)cc2cnc(NC3CCN(S(C)(=O)=O)CC3)nc21 (centres undefined) + CCn1c(-c2cccnc2C(C)OC)c2c3cc(ccc31)N1CCOC(CC(NC(=O)C(C(C)C)N(C)C(=O)C3(F)CCN(C(=O)C#CC(C)(C)N(C)C)CC3)C(=O)N3CCCC(N3)C(=O)OCC(C)(C)C2)C1
viability, T/C [1]: 60.3% | viability, T/C [2]: 41.9% | viability, T/C [3]: 26.5% | viability, T/C [4]: 18.6% | viability, T/C [5]: 19% | viability, T/C [6]: 2.09% | viability, T/C [7]: 64.3% | viability, T/C [8]: 48.8% | viability, T/C [9]: 24.5% | viability, T/C [10]: 22.2% | viability, T/C [11]: 14.9% | viability, T/C [12]: 2.67% | viability, T/C [13]: 61.6% | viability, T/C [14]: 43.5% | viability, T/C [15]: 32.4% | viability, T/C [16]: 23.2% | viability, T/C [17]: 15.3% | viability, T/C [18]: 2.34% | viability, T/C [19]: 58.2% | viability, T/C [20]: 45.9% | viability, T/C [21]: 28.3% | viability, T/C [22]: 24.2% | viability, T/C [23]: 15.5% | viability, T/C [24]: 4.11% | viability, T/C [25]: 60.5% | viability, T/C [26]: 50.1% | viability, T/C [27]: 25.9% | viability, T/C [28]: 24.4% | viability, T/C [29]: 16.4% | viability, T/C [30]: 2.24% | viability, T/C [31]: 60.5% | viability, T/C [32]: 43.2% | viability, T/C [33]: 21.9% | viability, T/C [34]: 23% | viability, T/C [35]: 19.4% | viability, T/C [36]: 1.76%

pIC50 (second compound 0.000949 µM): 5.99 | pIC50 (second compound 0.003 µM): 6.12 | pIC50 (second compound 0.00949 µM): 5.98 | pIC50 (second compound 0.03 µM): 5.97 | pIC50 (second compound 0.0949 µM): 6.11 | pIC50 (second compound 0.3 µM): 6.05
SMILES: CCC(CC)c1cc(NC2CCC(N)C2)n2nccc2n1 (centres undefined) + CCn1c(-c2cccnc2C(C)OC)c2c3cc(ccc31)N1CCOC(CC(NC(=O)C(C(C)C)N(C)C(=O)C3(F)CCN(C(=O)C#CC(C)(C)N(C)C)CC3)C(=O)N3CCCC(N3)C(=O)OCC(C)(C)C2)C1
viability, T/C [1]: 70.7% | viability, T/C [2]: 66.5% | viability, T/C [3]: 73.8% | viability, T/C [4]: 50.8% | viability, T/C [5]: 1.84% | viability, T/C [6]: 0.99% | viability, T/C [7]: 70.5% | viability, T/C [8]: 87% | viability, T/C [9]: 67.8% | viability, T/C [10]: 44.1% | viability, T/C [11]: 1.8% | viability, T/C [12]: 0.91% | viability, T/C [13]: 73.5% | viability, T/C [14]: 73.7% | viability, T/C [15]: 78.1% | viability, T/C [16]: 51.9% | viability, T/C [17]: 3.01% | viability, T/C [18]: 1.66% | viability, T/C [19]: 78.4% | viability, T/C [20]: 82.8% | viability, T/C [21]: 71.9% | viability, T/C [22]: 53.5% | viability, T/C [23]: 1.5% | viability, T/C [24]: 1.09% | viability, T/C [25]: 74.6% | viability, T/C [26]: 67.4% | viability, T/C [27]: 65.7% | viability, T/C [28]: 44.8% | viability, T/C [29]: 1.32% | viability, T/C [30]: 0.88% | viability, T/C [31]: 77.3% | viability, T/C [32]: 67.2% | viability, T/C [33]: 61.8% | viability, T/C [34]: 48.4% | viability, T/C [35]: 1.4% | viability, T/C [36]: 0.57%
